# From patent US8975259B2, “Compositions and methods for inhibiting G protein signaling” (University of Rochester, priority 2007, dated 2015)
# “And” between values parts separate entries of the source, which are not always exact repeats. Identical values can stand only once. “Also recorded” adds a separate entry of the source.
# Columns and labels:
# Gαi1-Gβ1γ2 interaction = biological target: T1, Gαi1-Gβ1γ2 interaction (UniProt P54311+P63212); test: Flow cytometry competition for FITC-Gαi1 binding to immobilized b-Gβ1γ2
# T1 construct: made in house; host or cells: b-βγ: Sf9 insect cells
# Description: (2003) supra; Sarvazyan, et al. (1998) J. Biol. […] Fluorescein-labeled Ga^ (Fan) was prepared in accordance with standard methods (Sarvazyan, et al. (1998) supra). Assays were used to determine peptide effects on Gα-Gβγ interactions included competition and dissociation assays (Ghosh, et al. (2003) supra). […] The bead-associated fluorescence was then recorded in a BD Biosciences […] flow cytometer. Data was corrected for background fluorescence and fit with a sigmoid dose response curve using Graph Pad Prism 4. To measure dissociation of Fan from b-Gβaγ2, 100 pM of Fa^ was incubated with 50 pM immobilized b-Gβ1γ2 at room temperature for 15-20 minutes.
# [1] = tested on: naloxone-precipitated morphine withdrawal in mice; test: Acute morphine physical dependence (naloxone-precipitated jumping); assay type: in vivo, mouse; conditions: morphine 100 mg/kg s.c. −4 hr; M119 100 nmol i.c.v. 30 min before naloxone 10 mg/kg i.p.
# Description: Prior to the administration of naloxone (30 min) mice were injected with vehicle, i.c.v. Withdrawal was precipitated by an injection of the opioid antagonist, naloxone (10 mg/kg, i.p.). Mice were immediately placed in a clear cylinder and observed for 15 min. The number of vertical jumps was recorded during this time.
# [2] = tested on: M3 muscarinic receptor-dependent Ca2+ release in HEK-293 cells; test: Carbachol-dependent Ca2+ release in HEK-293 cells expressing M3 muscarinic receptor; assay type: cell-based; conditions: 10 μM; result in words
# [3] = tested on: opioid-induced antinociception in mice; test: 55° C. warm-water tail-flick antinociception; assay type: in vivo, mouse
# [4] = tested on: isoproterenol-induced heart failure in mice; test: Isoproterenol mini-osmotic pump acute model of heart failure; assay type: in vivo, mouse; conditions: result in words
# Description: Conscious echocardiography was performed on animals prior to sacrifice. % FS is a measure of cardiac contractility derived from end-diastolic and end-systolic diameters. […] Heart weight to body weight ratio (HW:BW) was assessed upon sacrifice of the animal. (n=7-8 per condition)
# Immunoblot for GRK2 of equal amounts of total protein isolated from hearts of adult C57/B16 male mice following 1 week of either vehicle or Iso (30 mg/kg/day) delivered by miniosmotic pumps (Veh, . . . or Iso, . . . , respectively) and concurrent daily vehicle or M119 (100 mg/kg) daily injections ( . . . , Veh, or . . . , Cmpd, respectively).
# Based on the positive cardiomyocyte data, the cardiac effects of M119 were tested in vivo. The NCI compound database and chemical library was originally assembled to investigate these compounds utilizing both a yeast high-throughput screening assay as well as in vivo compound delivery to mice for 1-2 weeks. […] Wild type mice were implanted with mini-osmotic pumps filled with either vehicle or the non-selective β-AR agonist isoproterenol. These pumps release a constant fluid volume, and 30 mg/kg/day of isoproterenol (Iso) has been used to attain pathologic cardiac hypertrophy and dysfunction in one week Immediately following mini-osmotic pump implantation of vehicle or Iso (30 mg/kg/day), mice from each group were injected intraperitoneal (IP) once daily with equal volumes of either vehicle or a moderate dose of M119 (100 mg/kg) for seven days. […] The Iso pumped animals indeed suffered a decrease of cardiac function coupled with pathologic hypertrophy.
# [5] = tested on: fMLP-dependent Ca2+ release in differentiated HL60 cells; test: fMLP-dependent Ca2+ release in fura-2 loaded DMSO-differentiated HL60 cells; assay type: cell-based, human; conditions: 10 μM compound, 250 nM fMLP, result in words
# Description: Cells were pretreated with DMSO or 10 μM compounds for 5 min prior to stimulation with 250 nM fMLP. […] Normalized peak Ca^2+ responses were pooled from three independent experiments each (mean±SEM). Cells were pretreated with DMSO (▪) or compounds (▴) for 5 min prior to stimulation. FIG. 5C is the same as A except 10 μM M201 was tested. […] Differentiated HL60 cells were treated with 10 μM compound prior to stimulation with 250 nM fMLP. Translocation of endogenous GRK2 was determined by Western blotting with a GRK2 antibody and quantitative chemiluminescence. Data are mean±SEM from 5 experiments, * P<0.05, **P<0.01 ANOVA. […] Differentiated HL60 cells stably over-expressing GFP-PHAkt were treated with 10 μM compound prior to stimulation with 100 nM fMLP. Translocation of GFP-PHAkt to the membrane was determined by Western blotting with an anti-GFP antibody and quantitative chemiluminescence. Data are mean±SEM from 4 experiments. *** P<0.001 ANOVA. […] Differentiated HL60 cells were pretreated with 10 μM of compound prior to stimulation with 1 μM fMLP for 5 min. Levels of phosphorylated and total ERK were determined by Western blotting.
# Ca^2+ fluxes were measured using two 35 mL cultures of differentiated HL-60 neutrophil cultures (0.2×10^6 cells/mL). Cells were cultured for three days with in DMSO
# (1.2%), washed in HSS and resuspended in 2 mL HBSS at a concentration of 7×10^s cells/mL. Addition of DMSO to the growth medium induces differentiation of these cells into morphologically and functionally mature neutrophils
# (Collins, et al. (1978) Proc. Natl. Acad. Sci. USA 75:2458; Collins, et al. (1979) J. Exp. Med. 149:969). Neutrophils were preloaded with fura-2 (1 μM), a fluorescent Ca^2+-sensitive indicator (Suh, et al. (1996) J. Biol. Chem. 271:32753), for 45 minutes, washed with HBSS and resuspended in 2 mL of indicator-free HBSS. An 140 μL aliquote of cells was added to a total of 2 mL HBSS. Fluorescence ratios were taken by dual excitation at 340 and 380 nm and emission at 510 nm. After a stable baseline was established, either DMSO or NSC119910 was added and incubated for 5 minutes. […]
# [6] = tested on: ATP-dependent Ca2+ increase in differentiated HL-60 neutrophils; test: ATP-dependent Ca2+ increase in differentiated HL-60 neutrophils; assay type: cell-based, human; conditions: result in words
# Description: (Collins, et al. (1978) Proc. Natl. Acad. Sci. USA 75:2458; Collins, et al. (1979) J. Exp. Med. 149:969). Neutrophils were preloaded with fura-2 (1 μM), a fluorescent Ca^2+-sensitive indicator (Suh, et al. (1996) J. Biol. Chem. 271:32753), for 45 minutes, washed with HBSS and resuspended in 2 mL of indicator-free HBSS. An 140 μL aliquote of cells was added to a total of 2 mL HBSS. Fluorescence ratios were taken by dual excitation at 340 and 380 nm and emission at 510 nm. After a stable baseline was established, either DMSO or NSC119910 was added and incubated for 5 minutes. Subsequently, either fMLP or ATP agonists were added to activate release of Ca^2+ from intracellular stores.
# Fαi1GDPβ1γ2 heterotrimer = biological target: T2, Fαi1GDPβ1γ2 heterotrimer (UniProt P54311+P63212); test: Dissociation of Fαi1 from preformed Fαi1β1γ2 heterotrimer (flow cytometry); assay type: binding; conditions: result in words
# T2 construct: made in house; host or cells: b-βγ: Sf9 insect cells
# [7] = tested on: acute morphine antinociceptive tolerance in mice; test: Acute morphine antinociceptive tolerance (repeated i.c.v. dosing, tail-flick); assay type: in vivo, mouse
compound,measurement,setting,value
"O=C(O)C1CCCCC1c1c2ccc(=O)c(O)c-2oc2c(O)c(O)ccc12 (stereo not shown) [Compound M119, cyclohexanecarboxylic acid, 2-(4,5,6-trihydroxy-3-oxo-3H-xanthen-9-yl)-(9cl)]",IC50,Gαi1-Gβ1γ2 interaction,400 nM
same,interactions of Gα subunit with Gβγ subunits,Gαi1-Gβ1γ2 interaction; result in words,blocked
same,number of vertical jumps in the 15-min counting period,[1],23±14
same,effect on carbachol-dependent increases in Ca^2+,[2],no effect
same,ED50 of Deltorphin II in the presence of M119,[3]; M119 100 nmol i.c.v.,11 nmol
same,ED50 of DAMGO co-administered with M119,"[3]; mouse, in vivo",0.01 nmol
same,ED50 of DPDPE with M119,"[3]; mouse, in vivo",5.4 nmol
same,"ED50 of U50,488 with M119","[3]; mouse, in vivo",17 nmol
same,ED50 of morphine co-administered with the compound,"[3]; mouse, in vivo",0.065 nmol and 0.069 (0.023-0.201) nmol
same,Percent Antinociception ± S.E.M.,"[3]; mouse, in vivo",100 ± 0.0% and 79.3 ± 9.1% and 64.4 ± 10.0% and 55.3 ± 12.7%
same,effect of compound alone on baseline antinociception,"[3]; mouse, in vivo",no effect
same,leftward shift in the DAMGO dose-response curve,"[3]; mouse, in vivo",7 fold
same,"shift in the U50,488 dose-response curve","[3]; mouse, in vivo",2 fold
same,shift of morphine ED50 / increase in analgesic potency of morphine,"[3]; mouse, in vivo",11 fold
same,leftward shift of systemic morphine ED50,"[3]; mouse, in vivo, 100 mg/kg",4 fold
same,effect on interstitial cardiac fibrosis,"[4]; Iso 30 mg/kg/day pump, M119 100 mg/kg IP daily, seven days",reduction in interstitial cardiac fibrosis
same,effect on cardiac function and morphology in Iso pumped animals,"[4]; Iso 30 mg/kg/day pump, M119 100 mg/kg IP once daily, seven days",near normalization of cardiac function and morphology
same,effect on GRK2 expression in the Iso HF model,[4]; M119 100 mg/kg IP daily,nearly normalized
same,effect of compound alone on cardiac function or morphology,"[4]; vehicle pump, M119 100 mg/kg IP daily",no effect
same,effect on fMLP-induced Ca^2+ increase,[5],attenuated
same,effect on fMLP-induced Ca^2+ increase,[5]; listed as NSC119910,suppressed; also recorded: block
same,effect on ATP-induced [Ca^2+] increase,[6],not significantly suppressed
same,promotion/acceleration of heterotrimer dissociation,Fαi1GDPβ1γ2 heterotrimer,did not promote dissociation
same,ED50 of morphine co-administered with M119,[7]; 6 hr,0.22 nmol
same,ED50 of morphine co-administered with M119,[7]; time 0,0.16 nmol
